Where a name gives a salt, the structure may show the parent alone. Marks after values point to notes of the source that are not given here.
What was measured:
[1] = Dynamic / gravimetric vapour sorption (DVS/GVS) hygroscopicity; type: physicochemical
Description: Approximately, 10-20 mg of sample was placed into a mesh vapour sorption balance pan and loaded into a DVS Intrinsic dynamic vapour sorption balance by Surface Measurement Systems. The sample was subjected to a ramping profile from 40-90% relative humidity (RH) at 10% increments, maintaining the sample at each step until a stable weight had been achieved (dm/dt 0.004%, minimum step length 30 minutes, maximum step length 500 minutes) at 25° C. After completion of the sorption cycle, the sample was dried using the same procedure to 0% RH and then a second sorption cycle back to 40% RH. Two cycles were performed. The weight change during the sorption/desorption cycles were plotted, allowing for the hygroscopic nature of the sample to be determined. XRPD analysis was then carried out on any solid retained.
Approximately 10-20 mg of sample was placed into a mesh vapour sorption balance pan and loaded into an IGASorp Moisture Sorption Analyser balance by Hiden Analytical. The sample was subjected to a ramping profile from 40-90% relative humidity (RH) at 10% increments, maintaining the sample at each step until a stable weight had been achieved (98% step completion, minimum step length 30 minutes, maximum step length 60 minutes) at 25° C. After completion of the sorption cycle, the sample was dried using the same procedure to 0% RH, and finally taken back to the starting point of 40% RH. Two cycles were performed. The weight change during the sorption/desorption cycles were plotted, allowing for the hygroscopic nature of the sample to be determined.

[2] = Primary salt screen: XRPD pattern after drying and after 40° C./75% RH; type: physicochemical
Description: The following procedure was used: • Approximately 30 mg of 1-methyl-1,4,5,10-tetrahydropyrazolo[3,4-b][1,5]benzodiazepine freebase was weighed into 5×1.5 mL glass vials. • 300 μL of selected solvent system was added to each vial to form a mobile slurry, and a beige slurry was observed. • 1.05 (or 0.525 for the hemi experiments) equivalents of acid counterion (see Table 1) was added to each sample and initial observations were recorded. • The samples were temperature cycled between ambient and 40° C. in 4-hour cycles for about 72 hours. • The samples were collected, and observations made. • Samples in which solids were observed were filtered via centrifugation and the solids were loaded onto a multi-well XRPD plate and analyzed by XRPD. • Samples in which no solids were observed were uncapped and left undisturbed to allow evaporation at ambient temperature.

[3] = Thermodynamic solubility in PBS buffer pH 7.4; type: physicochemical
Description: The thermodynamic solubility of freebase (example 1), phosphate form 1 (example 3) and L-tartrate form 1 (example 5) were assessed in phosphate buffered saline (PBS) buffer at pH 7.4 according to the following procedure: • Approximately 30 mg of each form was weighed into 2 mL glass vials. • 100 μL of buffer solution was added to each vial until partial dissolution was observed. • The observed slurries were agitated at ambient temperature for about 24 hours. • The samples were collected, and observations were recorded. • The samples were filtered via centrifugation. • The pH of the mother liquors were recorded. • The concentration of the mother liquors were recorded by HPLC.

[4] = Oral pharmacokinetics in rats; type: in vivo; details: male Sprague Dawley rats; for Plasma AUC0-inf/Dose / Plasma Cmax/Dose: dose-normalised; for Plasma AUC0-inf/Dose / Plasma Cmax/Dose / % Dose in urine: listed as Phosphate salt; for Apparent t1/2 / BA % / Plasma AUC0-inf / Plasma Cmax / Tmax / % Dose in urine: 5 mg/kg target dose (freebase equivalent), 5 mg/kg; for Apparent t1/2 / BA % / Plasma AUC0-inf / Plasma Cmax / Tmax: mean ± SD, n = 3, listed as Phosphate salt; for % Dose in urine: urine up to 24 h
Description: N=3 rats were run in each of the four conditions: • (1) Di-HCL salt in saline • (2) Di-HCL salt in methocel • (3) Phosphate form 1 in saline • (4) Phosphate form 1 in methocel
On the day of dosing the solid compounds were dissolved in either Saline (0.9%) or 0.5% hydroxypropyl methylcellulose (Methocel E3 Premium LV) in Milli-Q water. The formulations were then thoroughly vortexed to produce colourless solutions.
Overnight-fasted rats with adlibitum access to water were administered their dose of the various forms of the compound of the invention via oral gavage (PO) at a dose volume of 3 ml/kg and a dose of 5 mg/kg freebase equivalent. Food access was re-instated 4 hours (h) post-dose. Samples of arterial blood were collected up to 24 h post-dose. After collection, samples were centrifuged, plasma was removed and stored frozen at −80° C. before being analysed by LC-MS. Urine samples were collected at pre, 0-4 h, 4-7 h and 7-24 h post-dose and were analysed by LC-MS following extraction.

[5] = test system: C57BL/6 mouse model of opioid withdrawal; experiment: Naloxone precipitated oxycodone withdrawal-induced jumping; type: in vivo; details: 7.3 mg/kg FBE i.p., C57BL/6 mice, 30 min session, vs OXY_VEH
Description: Two cohorts of adult male C57BL/6 mice were run assessing the effects of 7.3 mg/kg freebase equivalent (FBE) IP of the compound of the invention in the dihydrochloride salt form (CMPD1-2HCL) and the phosphate form 1 (CMPD1-PO4) on naloxone precipitated withdrawal-induced jumping.
The first cohort of mice (N=30) were split into the following conditions: • (1) Vehicle, 0 mg/kg (n=10); • (2) oxycodone, 0 mg/kg compound of the invention FBE in 2HCL salt form (n=10); • (3) oxycodone, 7.3 mg/kg compound of the invention FBE in 2HCL salt form (n=10).
The second cohort of mice (N=24) were split into the following conditions: • (1) Vehicle, 0 mg/kg (n=8); • (2) oxycodone, 0 mg/kg compound of the invention FBE in PO4 salt form (n=8); • (3) oxycodone, 7.3 mg/kg compound of the invention FBE in PO4 salt form (n=8).
Mice in the oxycodone conditions received i.p. injections of oxycodone for 5 days according to the schedule and doses set out in Table 8. The morning and afternoon doses were separated by 7 h. Mice in the vehicle condition received injections of vehicle saline instead of oxycodone. […]
Testing involved placing mice individually into a 20 (I)×20 (w)×30 (h) cm arena for 30 min. […] Number of jumps were scored from the videos by an experienced experimenter blind to conditions.
Data were analysed by SPSS using oneway ANOVA and planned contrasts.

hygroscopicity ([1]; DVS, 25° C.): slightly hygroscopic
DVS mass increase ([1]; at 90% RH): about 0.4%
Post-Drying (XRPD pattern) ([2]; oven at 40° C. for about 24 hours, listed as Phosphate pattern 1): Pattern 1
Comments (stability) ([2]; salt screen summary): Good
Post 40° C./75% RH (XRPD pattern) ([2]; stability chamber at 40° C./75% RH for about 24 hours, listed as Phosphate pattern 1): Pattern 1
solubility ([3]; PBS buffer at pH 7.4, ambient temperature, about 24 hours, HPLC): 7400 µg/mL
pH (t = 24 h) ([3]; mother liquor of PBS pH 7.4 slurry): 3.48
Plasma AUC0-inf/Dose ([4]; Methocel): 0.85 ± 0.18 (μg*h/mL)/(mg/kg)
Plasma Cmax/Dose ([4]; Methocel): 0.41 ± 0.05 (μg/mL)/(mg/kg)
Plasma AUC0-inf/Dose ([4]; Saline): 1.02 ± 0.36 (μg*h/mL)/(mg/kg)
Plasma Cmax/Dose ([4]; Saline): 0.43 ± 0.03 (μg/mL)/(mg/kg)
Apparent t1/2 ([4]; Methocel): 36 ± 1.2 min
BA % ([4]; Methocel): 93.2 ± 20^b %
Plasma AUC0-inf ([4]; Methocel): 4160 ± 880 ng·h/mL
Plasma Cmax ([4]; Methocel): 2010 ± 250 ng/mL
Tmax ([4]; Methocel): 15 ± 0 min
% Dose in urine ([4]; Methocel): 0.222 ± 0.093%
Apparent t1/2 ([4]; Saline): 48.6 ± 12 min
BA % ([4]; Saline): 111 ± 40^b %
Plasma AUC0-inf ([4]; Saline): 4950 ± 1750 ng·h/mL
Plasma Cmax ([4]; Saline): 2090 ± 140 ng/mL
Tmax ([4]; Saline): 30 ± 24 min
% Dose in urine ([4]; Saline): 0.395^d %
exposure profile compared with dihydrochloride salt form ([4]; saline or methocel vehicle): same exposure profile
Structure (SMILES): Cn1ncc2c1Nc1ccccc1NC2 [Phosphate form 1, phosphoric acid addition salt of 1-methyl-1,4,5,10-tetrahydropyrazolo[3,4-b][1,5]benzodiazepine]
change in form by XRPD post-DVS analysis [1]: No evidence of form changes or hydrate formation
thermal stability and hygroscopicity ([2]; conclusion of salt screen): acceptable thermal stability and hygroscopicity
oxycodone withdrawal-induced jumping [5]: significantly inhibited

Reference: patent publication US20240287074A1, “SALTS AND CRYSTALS” (Kinoxis Therapeutics Pty Ltd, priority 2020, published 2024)
